Laboratory results as given in patent publication US5922677A, “Therapeutic method and compounds of use therein” (Auckland UniServices Limited, priority 1994, dated 1999).
Where a name gives a salt, the structure may show the parent alone. No end group written: not given here.

Tests used:
[1] = system: osteoblast-like cells from fetal rat calvariae; experiment: Numbers of osteoblast-like cells in culture; format: cell-based; conditions: for effect on cell number (osteoblast proliferation): growth-arrested cultures, 24 hours
Excerpt: Cells were either (a) growth-arrested as a result of being cultured in the presence of 0.1% bovine serum albumin or (b) were actively growing in culture medium containing 2% fetal calf serum. n=6 in each group. Data are mean ± sem. Statistical significance (by Student's test) of differences from control: *p≤0.05; **p<0.005; ***p<0.001.

[2] = system: osteoblast-like cells from fetal rat calvariae; experiment: Numbers of osteoblast-like cells in culture; format: cell-based; conditions: for Osteoblast Numbers after 24 h culture: mean ± SD
calvariae of adult mice = experiment: In vivo calvarial study, local injection over hemicalvaria, histomorphometry; conditions: 4.1×10^-9 mol daily for 5 days over right hemicalvaria
Excerpt: FIG. 4 Comparison of the in vivo effects of rat amylin, rat calcitonin (CT) and rat CGRP in adult mice. The daily dose of each peptide was 4.1×10^-9 mol. Data are expressed as the ratio of each index measured in the injected hemicalvaria to that measured in the contralateral, uninjected hemicalvaria. n=5 in each group. Data are mean ± sem. Significant differences (p<0.05) between the injected and uninjected hemicalvariae are indicated by asterisks.
The effects of the peptides on bone histology in vivo were assessed by subcutaneously injecting the peptide daily for 5 days over the periosteum of the right hemicalvaria of adult, male Swiss-Webster mice. The animals were sacrificed 1 week following the last injection. Non-decalcified sections of the calvariae were prepared as described previously, Cornish, J., Callon, K., King, A., Edgar, S., and Reid, I. R. (1993) Endocrinology 132, 1359-1366. Quantitative histomorphometry was performed by an operator blinded to the treatment each animal had received. Data are expressed as the ratio of each index measured in the injected hemicalvaria to that measured in the contralateral, uninjected hemicalvaria of the same animal and have been evaluated by paired t tests.

[3] = system: osteoblast-like cells from fetal rat calvariae; experiment: Thymidine incorporation into osteoblast-like cells; format: cell-based; conditions: time-course (FIG. 3), medium with 0.1% bovine serum albumin
Procedure: FIG. 3 The effect of rat amylin on thymidine incorporation into osteoblast-like cells from fetal rat calvariae. Statistical significance of differences from control at each time-point: *p=0.002; **p<0.001. In both experiments the culture medium contained 0.1% bovine serum albumin. n=6 in each group. Data are mean ± sem.
Osteoblast-like cells were prepared by sequential collagenase digestion of calvariae from 20 day fetal rats, as described previously, Lowe, C., Cornish, J., Callon, K, Martin, T. J., and Reid, I. R. (1991) J. Bone Miner. Res. 6, 1277-1283.

mouse calvaria = experiment: Systemic in vivo experiment, calvarial histomorphometry; set-up: species or system mice
Procedure: We have also conducted the following systemic in vivo experiment where amylin at a concentration of 10^-8 M is injected subcutaneously.
Calvarial Histomorphometry
11 mice in each treatment group.
Differences between control and amylin groups were statistically tested using an unpaired Student t test.
Measurements are recorded per mm calvarial length.

[4] = injected vs uninjected hemicalvaria
[5] = systemic test, summary in words

`O=C(O)C(F)(F)F` [TFA, trifluoroacetic acid] was tested, and the cell numbers ([1]; 4×10^-8 M, exposed for 24 hrs, control 5.6±0.3×10^4) was 4.2±0.3×10^4.
With “Amylin, TFA Salt: amylin as trifluoroacetic acid salt, generally the tetra-TFA salt, as isolated by HPLC (KCNTATCATQRLANFLVHSSNNFGAILSSTNVGSNTY; not fully specified (C-terminus, bridges); cysteine pairing not given here; also: trifluoroacetate salt; UniProt P10997 34-70, looked up)” the “Osteoblast Numbers after 24 h culture” value ([2]; 10^-8 M, control 4.6 ± 0.64) was 5.6 ± 0.96 10^4 cells/well.
In the case of “Amylin, chloride salt: amylin salt prepared by dissolving peptide in 3 mM hydrochloric acid and freeze-drying (KCNTATCATQRLANFLVHSSNNFGAILSSTNVGSNTY; not fully specified (C-terminus, bridges); cysteine pairing not given here; also: chloride salt; UniProt P10997 34-70, looked up)”, the “Osteoblast Numbers after 24 h culture” value ([2]; 10^-8 M, control 4.6 ± 0.64) is reported as 7.9 ± 1.00 10^4 cells/well.
For “CGRP: rat calcitonin gene-related peptide-1, a peptide related to amylin (SCNTATCVTHRLAGLLSRSGGVVKDNFVPTNVGSEAF; not fully specified (C-terminus, bridges); cysteine pairing not given here; UniProt P01256 83-119, looked up)”, the “effect on cell number (osteoblast proliferation)” value (shortened to “effect on cell number”) ([1]; dose-response (FIG. 1a)) was “increased osteoblast proliferation, but the effect was smaller and only significant at 10^-8 M”.
For “Rat calcitonin: rat calcitonin peptide, comparator (CGNLSTCMLGTYTQDLNKFHTFPQTSIGVGAP; ends and bridges not checked; cysteine pairing not given here; UniProt P01257 85-116, looked up) [reference compound]”, the “effect on cell number” value ([1]; 10^-9 -10^-7 M) was “without effect”, the eroded surface (calvariae of adult mice) was “reduced eroded surface to a similar extent to amylin” and the “mineralized bone area increase” value (calvariae of adult mice; non-significant) was 4%.
For “amylin: 37-amino acid peptide cosecreted with insulin from pancreatic beta cells; species not printed at place (rat amylin per FIG. 1-4 legends)”, the “stimulation of osteoblast proliferation” value ([1]; actively growing cells (2% fetal calf serum, FIG. 1b)) was “also observed in actively growing cells”, the “effect on cell number” value ([1]; dose-response (FIG. 1a)) was “substantial, dose-related increase in cell number” and the “DNA synthesis assessed by thymidine incorporation” value [3] was “sustained increase in DNA synthesis”. For the same compound, the bone resorption (calvariae of adult mice; [4]) was “decreases in bone resorption of comparable magnitude”, the “indices of bone formation” value (calvariae of adult mice; [4]) was “two- to three-fold increases” and the “indices of bone formation compared to control” value (mouse calvaria; [5]) was “significant increases in all indices of bone formation”. The “indices of bone resorption compared to control” value (mouse calvaria; [5]) was “significant decreases in indices of bone resorption”, the osteoid area (mouse calvaria; systemic, subcutaneous, 10^-8 M, mean, per mm calvarial length, control 0.0005) was 0.0018 mm^2 and the osteoclast surface (mouse calvaria; systemic, subcutaneous, 10^-8 M, mean, per mm calvarial length, control 0.094) was 0.019 mm. For the same compound, the eroded surface (mouse calvaria; systemic, subcutaneous, 10^-8 M, mean, per mm calvarial length, control 0.294) was 0.081 mm, the osteoblast surface (mouse calvaria; systemic, subcutaneous, 10^-8 M, mean, per mm calvarial length, control 0.85) was 1.76 mm and the osteoclast number (mouse calvaria; systemic, subcutaneous, 10^-8 M, mean, per mm calvarial length, control 3.6) was 1.2. For the same compound, the osteoblast number (mouse calvaria; systemic, subcutaneous, 10^-8 M, mean, per mm calvarial length, control 73.6) was 147.5 and the “cell number over time” value ([2]; time-course 6 to 48 hours (FIG. 2)) was “increased in amylin-treated cells from 6 to 48 hours”.
parathyroid hormone gave a reduced cell numbers ([1]; 10^-8 M, at 24 hours) of 18%.
In the case of “rat amylin: rat form of the 37-amino acid peptide amylin (KCNTATCATQRLANFLVRSSNNLGPVLPPTNVGSNTY; not fully specified (C-terminus, bridges); cysteine pairing not given here; UniProt P12969 38-74, looked up)”, the “Osteoblast Numbers after 24 h culture” value ([2]; 10^-9 M, control 4.2 ± 0.6) is reported as 5.9 ± 0.8 x10^4 cells/well.
In the case of salmon calcitonin, the “effect on cell number” value ([1]; 10^-7 M) is reported as “without effect”.
